Where a name gives a salt, the structure may show the parent alone.
test system: neuronal protein extravasation; assay: Protein extravasation in dura after electrical stimulation of the trigeminal ganglion; format: in vivo, rats or guinea pigs; conditions: dose that inhibited the extravasation by 50%, approximated from dose-response curve
Description: Harlan Sprague-Dawley rats (225-325 g) or guinea pigs from Charles River Laboratories (225-325 g) were anesthetized with sodium pentobarbital intraperitoneally (65 mg/kg or 45 mg/kg respectively) and placed in a stereotaxic frame (David Kopf Instruments) with the incisor bar set at -3.5 mm for rats or -4.0 mm for guinea pigs. Following a midline sagital scalp incision, two pairs of bilateral holes were drilled through the skull (6 mm posteriorly, 2.0 and 4.0 mm laterally in rats; 4 mm posteriorly and 3.2 and 5.2 mm laterally in guinea pigs, all coordinates referenced to bregma). Pairs of stainless steel stimulating electrodes (Rhodes Medical Systems, Inc.) were lowered through the holes in both hemispheres to a depth of 9 mm (rats) or 10.5 mm (guinea pigs) from dura.
The femoral vein was exposed and a dose of the test compound was injected intravenously (1 mL/kg). Approximately 7 minutes later, a 50 mg/kg dose of Evans Blue, a fluorescent dye, was also injected intravenously. The Evans Blue complexed with proteins in the blood and functioned as a marker for protein extravasation. Exactly 10 minutes post-injection of the test compound, the left trigeminal ganglion was stimulated for 3 minutes at a current intensity of 1.0 mA (5 Hz, 4 msec duration) with a Model 273 potentiostat/ galvanostat (EG&G Princeton Applied Research).
Fifteen minutes following stimulation, the animals were killed and exsanguinated with 20 mL of saline. The top of the skull was removed to facilitate the collection of the dural membranes. The membrane samples were removed from both hemispheres, rinsed with water, and spread flat on microscopic slides. Once dried, the tissues were coverslipped with a 70% glycerol/water solution.
A fluorescence microscope (Zeiss) equipped with a grating monochromator and a spectrophotometer was used to quantify the amount of Evans Blue dye in each sample. An excitation wavelength of approximately 535 nm was utilized and the emission intensity at 600 nm was determined. The microscope was equipped with a motorized stage and also interfaced with a personal computer. This facilitated the computer-controlled movement of the stage with fluorescence measurements at 25 points (500 µm steps) on each dural sample. The mean and standard deviation of the measurements was determined by the computer.
The extravasation induced by the electrical stimulation of the trigeminal ganglion was an ipsilateral effect (i.e. occurs only on the side of the dura in which the trigeminal ganglion was stimulated). This allows the other (unstimulated) half of the dura to be used as a control. The ratio of the amount of extravasation in the dura from the stimulated side compared to the unstimulated side dura was calculated. Saline controls yielded a ratio of approximately 2.0 in rats and 1.8 in guinea pigs. […]

Row | Compound | i.v. ID50 [mmol/kg]
1 | CNS(=O)(=O)Cc1ccc2[nH]cc(CCN(C)C)c2c1.O=C(O)CCC(=O)O [Compound I, 3-[2-(dimethylamino)ethyl]-N-methyl-1H-indole-5-methanesulfonamide butane-1,4-dioate (1:1)] | 2.6e-08
2 | O=C(O)C(=O)O.Oc1ccc2[nH]cc(C3CCNCC3)c2c1 [Compound III, 5-hydroxy-3-(4-piperidinyl)-1H-indole oxalate] | 8.9e-09
3 | CCN(CC)C1CCc2cccc(Cl)c2C1.Cl (centres unmarked) [Compound IV, 8-chloro-2-diethylamino-1,2,3,4-tetrahydronaphthalene hydrochloride] | 1.2e-07
4 | Cn1cc(CCN2CCC(c3c[nH]c4ccc(F)cc34)CC2)cn1 [Compound II, 5-fluoro-3-<1-<2-<1-methyl-1H-pyrazol-4-yl>ethyl>-4-piperidinyl>-1H-indole hydrochloride] | 8.6e-10
5 | CN(C)C1CCc2[nH]c3ccc(O)cc3c2C1 (centres unmarked) [Compound V, 6-hydroxy-3-dimethylamino-1,2,3,4-tetrahydrocarbazole] | 8.7e-09
